Results published in patent US8030327B2 (MDS K.K., priority 2004, dated 2011).

Columns and labels:
full-length human PLK1 = molecular target: T1, full-length human PLK1 (Homo sapiens, UniProt P53350); assay: Measurement of PLK1 activity (33P-ATP, phosphocellulose filter); assay type: biochemical; conditions: 50 μM substrate peptide, 50 μM ATP, 25° C., 20 minutes, read-out: PLK1 inhibitory activity
T1 construct: a baculovirus expressing full-length human PLK1; GST (glutathione S-transferase) (N, cleaved yes); made in house; host or cells: Spodoptera frugiperda Sf9 insect cells (baculovirus)
T1 sequence (P53350 whole entry): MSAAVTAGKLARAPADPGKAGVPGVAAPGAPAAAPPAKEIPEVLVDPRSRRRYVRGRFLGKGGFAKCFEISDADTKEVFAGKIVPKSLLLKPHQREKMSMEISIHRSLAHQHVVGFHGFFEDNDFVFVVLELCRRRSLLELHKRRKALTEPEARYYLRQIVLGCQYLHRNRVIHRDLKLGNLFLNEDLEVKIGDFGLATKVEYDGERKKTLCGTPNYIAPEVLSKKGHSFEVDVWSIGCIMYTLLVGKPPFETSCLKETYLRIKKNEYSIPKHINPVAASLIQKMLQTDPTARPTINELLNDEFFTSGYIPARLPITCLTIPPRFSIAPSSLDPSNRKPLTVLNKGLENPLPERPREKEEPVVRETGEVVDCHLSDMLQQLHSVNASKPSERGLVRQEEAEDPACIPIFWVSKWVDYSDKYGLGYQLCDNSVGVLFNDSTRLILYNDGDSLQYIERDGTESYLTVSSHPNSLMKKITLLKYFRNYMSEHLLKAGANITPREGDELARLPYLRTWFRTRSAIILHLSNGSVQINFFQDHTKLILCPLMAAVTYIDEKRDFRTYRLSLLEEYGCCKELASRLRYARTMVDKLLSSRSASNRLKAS
Procedure: First, a baculovirus expressing full-length human PLK1 of which the N terminus is fused with GST (glutathione S-transferase) was prepared, and then the PLK1 transfected into a Spodoptera frugiperda(Sf)9 insect cell was highly expressed as a GST-fused protein. The cells were recovered and suspended in a lysis buffer (50 mM tris-hydrochloric acid buffer (pH 7.4)/150 mM sodium chloride/1 mM EDTA (ethylenediamine tetraacetic acid)/1 mM dithiothreitol/0.1% polyoxyethylene sorbitan monolaurate) to break open cells with a sonicator, and supernatant was recovered after a centrifugation. The supernatant was reacted on glutathione sepharose beads, and then the beads were washed with a lysis buffer. Thereafter, the beads were reacted in a lysis buffer containing Precision Protease to recover supernatant. […]
The reaction was carried out in accordance with the method of Toyoshima-Morimoto et al. [Nature, Vol. 410, 215-220, (2001)]. […] After washing the phosphocellulose filter with 75 mM phosphate buffer, the filter was dried to measure the radioactivity with a liquid scintillation counter. […]

HeLaS3 cells = assay: PLK1 inhibitory activity at cellular level: M phase arrest by phospho-histone H3 (Ser10) immunofluorescence; assay type: cell-based, human; conditions: HeLaS3 cells synchronized at G1/S; 12 hours after addition; concentration inducing 50% of maximum ratio of cells arrested at M phase
Procedure: For the measurement of the PLK 1 inhibitory activity of the compound at the cellular level, human uterine cervix cell lines HeLaS3 cells were used. The HeLaS3 cell was obtained from American Type Culture Collection (ATTC), and cultured in a CO2-incubator of saturated steam, in the presence of 5% CO2, by using Dulbecco's Modified Eagle's Medium containing 10% fetal calf serum at 37° C.
It has been reported that PLK 1 plays an important role in various stages of mitotic phase (M-phase) in mammalian cells (Nature Review Molecular Cell Biology (Nat. Rev. Mol. Cell. Biol.), Vol. 5, 429, (2004)). In fact, when the mammalian cells are treated with PLK 1 siRNA to control the expression level, the cell cycle progression is inhibited and thus the cell is arrested at M phase. In addition, when examining the phosphorylation level of serine (10th residue on histone H3) which is thought to be required for a chromosome condensation in M phase, is examined, it is observed that the level is enhanced to a high level. Thus, after treating the cell with the compound according to the invention, the phosphorylation level of histone H3 was examined by the indirect fluorescent antibody technique, the cells arrested at M phase were identified by using the level thereof as an indicator to analyze the ratio of cells arrested at M phase, and then EC50 value of each compound was calculated to evaluate the PLK 1 inhibitory activity at a cellular level.
First, HeLaS3 cells synchronized at the G1/S phase by the double-thymidine method were seeded into a lysine-treated 96-well plate (Falcon Corp.) in the ratio of 8,000 per one well, and allowed to stand still in the above-mentioned CO2 incubator. 4 hours after the seeding, the compound according to the invention, which is diluted in series, was added into each well of the plate, and further allowed to stand still in the CO2 incubator. 12 hours after the addition of the compound according to the invention, the culture medium containing the compound according to the invention in each well of the plate was removed, and then 100 μL of ice-cold 100% methanol (Wako Pure Chemical Industries, Ltd.) was added, to carry out cell fixation for 10 minutes and treatment for increasing the membrane permeability. Subsequently, to the wells in which the methanol was removed, 50 μL of 1% BSA/PBS was added, and then blocking was carried out for 30 minutes. Thereafter, for the primary antibody reaction, 50 μL of 1% BSA/PBS containing a 2.5 mg/mL Anti-phospho Histone H3 (Ser10) antibody (Upstate Corp.) was added, and the plate was left over at room temperature for 90 minutes. After terminating the reaction, each well was once washed with PBS, and for the second antibody reaction, 50 μL of 1% BSA/PBS containing 1.5 mg/mL Cy5-labelled anti-rabbit IgG (H+ L) antibody (Chemicon) and 10 ug/mL DAPI (Sigma) which is a nucleus staining regent, was added to the wells, and further left over at room temperature for 90 minutes. After terminating the reaction, the reaction solution in wells was removed and replaced with 100 μL of PBS, and then fluorescence images were captured by using IN Cell Analyzer 1000 (manufactured by GE Amersham) to analyze the ratio of the cells arrested at M phase (Mitotic index) in each view.

[1] = molecular target: T2, PLK1-T210D (human active type PLK1) (Homo sapiens, UniProt P53350, T210D); assay: Measurement of PLK1-T210D activity (33P-ATP, phosphocellulose filter); assay type: biochemical; conditions: 50 μM substrate peptide, 50 μM ATP, 25° C., 20 minutes, read-out: PLK1-T210D inhibitory activity
T2 construct: a baculovirus expressing full-length human PLK1; GST (glutathione S-transferase) (N); made in house; host or cells: insect cells (baculovirus)
T2 sequence (P53350 whole entry T210D): as the sequence (P53350 whole entry) above, with T210D counted along it
Procedure: For the measurement of the PLK1 and PLK1-T210D activity, a synthetic peptide (aspartic acid-glutamic acid leucine-methionine-glutamic acid-alanine-serine-phenylalanine-alanine-aspartic acid-glutamine-aspartic acid-alanine-lysine) in which the serine surrounding sequence of the amino acid sequence No. 198 of CDC25C having been reported as the site for PLK1 substrate [EMBO Report, Vol. 3, 341 (2002)] is altered, was used as a substrate.
The volume of the reaction solution was 21.1 μL and the composition of the reaction buffer was 20 mM tris-hydrochloric acid buffer (pH 7.4)/10 mM magnesium chloride/0.5 mM dithiothreitol/1 mM EGTA (ethylene glycol-bis(beta-aminoethylether)-N,N,N′,N′,-tetraacetic acid). Thereto, purified PLK 1, 50 μM of the substrate peptide, 50 μM of non-labeled adenosine triphosphate (ATP), and 1 μCi of [γ-^33P]-labeled ATP (2000 to 4000 Ci/mmole) were added to carry out the reaction at 25° C. for 20 minutes. Then, 10 μL of 350 mM phosphate buffer was added to the reaction system to terminate the reaction. The resultant solution was spotted onto a multi-screen phosphocellulose filter on a 96-well plate. After washing the phosphocellulose filter with 75 mM phosphate buffer, the filter was dried to measure the radioactivity with a liquid scintillation counter. […]

| SMILES | IC50 (full-length human PLK1) [nM] | EC50 (HeLaS3 cells) [nM] | IC50 [1] [nM] |
| --- | --- | --- | --- |
| CC(Oc1cc(-c2cnc3cnccn23)sc1C(N)=O)c1ccccc1Cl (centres unmarked) [Example 163] |  | 660 |  |
| C[C@@H](Oc1cc(-c2cnc3ccc(CN4CCNCC4)cn23)sc1C(N)=O)c1ccccc1Cl [Example 119, 3-[(1R)-1-(2-chlorophenyl)ethoxy]-5-[6-(piperazin-1-ylmethyl)imidazo[1,2-a]pyridin-3-yl]thiophene-2-carboxyamide] | 28 | 210 | 22 |
| C[C@@H](Oc1cc(-c2cnc3ccc(OCCO)cn23)sc1C(N)=O)c1ccccc1Cl [Example 66, 3-[(1R)-1-(2-chlorophenyl)ethoxy]-5-[6-(2-hydroxyethoxy)imidazo[1,2-a]pyridin-3-yl]thiophene-2-carboxyamide] |  | 360 |  |
| C[C@@H](Oc1nc(-c2cnc3cnc(CS(C)(=O)=O)cn23)sc1C(N)=O)c1ccc(CN(C)C)cc1Cl [Example 236] |  | 100 |  |
| CC(Oc1nc(-c2cnc3ccccn23)sc1C(N)=O)c1ccccc1Cl (centres unmarked) [Example 161] |  | 490 |  |

Next, values leading:

| IC50 (full-length human PLK1) [nM] | EC50 (HeLaS3 cells) [nM] | IC50 [1] [nM] | SMILES |
| --- | --- | --- | --- |
| 12 | 70 | 12 | CC(Oc1cc(-c2cnc3ccccn23)sc1C(N)=O)c1ccccc1[N+](=O)[O-] (centres unmarked) [Example 44, 5-imidazo[1,2-a]pyridin-3-yl-3-[1-(2-nitrophenyl)ethoxy]thiophene-2-carboxyamide] |
|  | 390 |  | C[C@@H](Oc1cc(-c2cnc3ccc(C#N)cn23)sc1C(N)=O)c1ccc(CNC(C)(C)CO)cc1OC(F)F [Example 188, 5-(6-cyanoimidazo[1,2-a]pyridin-3-yl)-3-[(1R)-1-(2-(difluoromethoxy)-4-{[(2-hydroxy-1,1-dimethylethyl)amino]methyl}phenyl)ethoxy]thiophene-2-carboxyamide] |
